According to PubChem BioAssay AID1963851 (Molecular Pharmacology Branch, DTP, NCI, 2024):

Test system: 188146-221-R-J1-PDC complex spheroid viability
Test: Anticancer human tumor 188146-221-R-J1-PDC patient-derived colon adenocarcinoma cell line growth inhibition [POLQ]
Details: for IC50: curve of first compound; for viability, T/C: stronger effect = lower value; active = viability on the fitted dose curve at most 10% of control; inactive = the rest
Method in brief: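 Patient-derived tumour cells were co-cultured with HUVEC and mesenchymal stem cells as multicellular spheroids at 37 °C. They were treated with POLQ inhibitors (novobiocin, ART-558, RP6685) alone or combined with other agents. Top concentrations were at or near clinical Cmax (otherwise 10 microM; SN-38 at 1 microM), decreasing in half-log steps.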

[1] = second compound 0.0316 µM, first compound 0.0316 µM
[2] = second compound 0.0316 µM, first compound 0.1 µM
[3] = second compound 0.1 µM, first compound 0.0316 µM
[4] = second compound 0.1 µM, first compound 0.1 µM
[5] = second compound 0.316 µM, first compound 0.0316 µM
[6] = second compound 0.316 µM, first compound 0.1 µM
[7] = second compound 1 µM, first compound 0.0316 µM
[8] = second compound 1 µM, first compound 0.1 µM
[9] = second compound 3.16 µM, first compound 0.0316 µM
[10] = second compound 3.16 µM, first compound 0.1 µM
[11] = second compound 10 µM, first compound 0.0316 µM
[12] = second compound 10 µM, first compound 0.1 µM
[13] = second compound 0.0316 µM, first compound 0.316 µM
[14] = second compound 0.0316 µM, first compound 1 µM
[15] = second compound 0.0316 µM, first compound 3.16 µM
[16] = second compound 0.0316 µM, first compound 10 µM
[17] = second compound 0.1 µM, first compound 0.316 µM
[18] = second compound 0.1 µM, first compound 1 µM
[19] = second compound 0.1 µM, first compound 3.16 µM
[20] = second compound 0.1 µM, first compound 10 µM
[21] = second compound 0.316 µM, first compound 0.316 µM
[22] = second compound 0.316 µM, first compound 1 µM
[23] = second compound 0.316 µM, first compound 3.16 µM
[24] = second compound 0.316 µM, first compound 10 µM
[25] = second compound 1 µM, first compound 0.316 µM
[26] = second compound 1 µM, first compound 1 µM
[27] = second compound 1 µM, first compound 3.16 µM
[28] = second compound 1 µM, first compound 10 µM
[29] = second compound 3.16 µM, first compound 0.316 µM
[30] = second compound 3.16 µM, first compound 1 µM
[31] = second compound 3.16 µM, first compound 3.16 µM
[32] = second compound 3.16 µM, first compound 10 µM
[33] = second compound 10 µM, first compound 0.316 µM
[34] = second compound 10 µM, first compound 1 µM
[35] = second compound 10 µM, first compound 3.16 µM
[36] = second compound 10 µM, first compound 10 µM
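Note: spheroids exposed to compounds for seven days.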
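Throughout, for viability, T/C: 100% = DMSO vehicle control viability.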

CC[C@@]1(O)C(=O)OCc2c1cc1n(c2=O)Cc2cc3c(CN(C)C)c(O)ccc3nc2-1 + Nc1ccc(C#CCN(C(=O)Cc2ncc(C(F)(F)F)cc2C(F)(F)F)c2ccc(F)cc2)nn1
> 0.1 µM: IC50 (second compound 0.0316 µM) | IC50 (second compound 0.1 µM) | IC50 (second compound 0.316 µM) | IC50 (second compound 1 µM) | IC50 (second compound 3.16 µM) | IC50 (second compound 10 µM)
inactive: viability, T/C (second compound 0.0316 µM, first compound 0.000316 µM) 89.7% | viability, T/C (second compound 0.0316 µM, first compound 0.001 µM) 95.7% | viability, T/C (second compound 0.0316 µM, first compound 0.00316 µM) 84.3% | viability, T/C (second compound 0.0316 µM, first compound 0.01 µM) 101% | viability, T/C [1] 96.4% | viability, T/C [2] 73.5% | viability, T/C (second compound 0.1 µM, first compound 0.000316 µM) 118% | viability, T/C (second compound 0.1 µM, first compound 0.001 µM) 84.1% | viability, T/C (second compound 0.1 µM, first compound 0.00316 µM) 95.1% | viability, T/C (second compound 0.1 µM, first compound 0.01 µM) 100% | viability, T/C [3] 84.9% | viability, T/C [4] 74.9% | viability, T/C (second compound 0.316 µM, first compound 0.000316 µM) 104% | viability, T/C (second compound 0.316 µM, first compound 0.001 µM) 88.4% | viability, T/C (second compound 0.316 µM, first compound 0.00316 µM) 101% | viability, T/C (second compound 0.316 µM, first compound 0.01 µM) 97.5% | viability, T/C [5] 103% | viability, T/C [6] 69.5% | viability, T/C (second compound 1 µM, first compound 0.000316 µM) 103% | viability, T/C (second compound 1 µM, first compound 0.001 µM) 102% | viability, T/C (second compound 1 µM, first compound 0.00316 µM) 90.5% | viability, T/C (second compound 1 µM, first compound 0.01 µM) 86.4% | viability, T/C [7] 82.3% | viability, T/C [8] 68.2% | viability, T/C (second compound 3.16 µM, first compound 0.000316 µM) 106% | viability, T/C (second compound 3.16 µM, first compound 0.001 µM) 92.9% | viability, T/C (second compound 3.16 µM, first compound 0.00316 µM) 95.1% | viability, T/C (second compound 3.16 µM, first compound 0.01 µM) 89.3% | viability, T/C [9] 83% | viability, T/C [10] 80.1% | viability, T/C (second compound 10 µM, first compound 0.000316 µM) 100% | viability, T/C (second compound 10 µM, first compound 0.001 µM) 96.8% | viability, T/C (second compound 10 µM, first compound 0.00316 µM) 98.9% | viability, T/C (second compound 10 µM, first compound 0.01 µM) 98.3% | viability, T/C [11] 90.5% | viability, T/C [12] 66.2%

CC1COCCN1c1cc(-c2ccnn2C)c2ccnc(-c3ccn[nH]3)c2n1 (stereo unspecified) + Cc1cccc(N(C)C(=O)C2C(O)CCN2c2nc(C)cc(C(F)(F)F)c2C#N)c1
inactive: viability, T/C [1] 86.4% | viability, T/C [2] 63.6% | viability, T/C [13] 43.3% | viability, T/C [14] 21.8% | viability, T/C [15] 21.6% | viability, T/C [16] 17.8% | viability, T/C [3] 87.6% | viability, T/C [4] 72.7% | viability, T/C [17] 39.3% | viability, T/C [18] 26.5% | viability, T/C [19] 17% | viability, T/C [20] 15.7% | viability, T/C [5] 92.9% | viability, T/C [6] 79.8% | viability, T/C [21] 40% | viability, T/C [22] 26.5% | viability, T/C [23] 18.8% | viability, T/C [24] 13.8% | viability, T/C [7] 75.8% | viability, T/C [8] 73.9% | viability, T/C [25] 50.3% | viability, T/C [26] 26.4% | viability, T/C [27] 17.5% | viability, T/C [28] 15.8% | viability, T/C [9] 74.9% | viability, T/C [10] 67.6% | viability, T/C [29] 44% | viability, T/C [30] 20% | viability, T/C [31] 23.3% | viability, T/C [32] 16.6% | viability, T/C [11] 67.9% | viability, T/C [12] 51.5% | viability, T/C [33] 47.8% | viability, T/C [34] 25.1% | viability, T/C [35] 21.3% | viability, T/C [36] 20.2%
0.336 µM: IC50 (second compound 1 µM)
0.232 µM: IC50 (second compound 3.16 µM)
0.248 µM: IC50 (second compound 0.316 µM)
0.228 µM: IC50 (second compound 0.1 µM)
0.165 µM: IC50 (second compound 10 µM)
0.203 µM: IC50 (second compound 0.0316 µM)

CCc1cc2c(N3CCc4c(cc(Cn5ccnc5)cc4-c4cn(C)nc4C(F)(F)F)C3=O)cc(C)nc2c(OC)n1 + Cc1cccc(N(C)C(=O)C2C(O)CCN2c2nc(C)cc(C(F)(F)F)c2C#N)c1
7.64 µM: IC50 (second compound 0.0316 µM)
6.71 µM: IC50 (second compound 0.1 µM)
5.43 µM: IC50 (second compound 10 µM)
inactive: viability, T/C [1] 105% | viability, T/C [2] 90.4% | viability, T/C [13] 87% | viability, T/C [14] 84.9% | viability, T/C [15] 65.7% | viability, T/C [16] 44.5% | viability, T/C [3] 95.9% | viability, T/C [4] 90.9% | viability, T/C [17] 96% | viability, T/C [18] 86.4% | viability, T/C [19] 68.4% | viability, T/C [20] 40.3% | viability, T/C [5] 112% | viability, T/C [6] 94% | viability, T/C [21] 106% | viability, T/C [22] 98.2% | viability, T/C [23] 67% | viability, T/C [24] 41.9% | viability, T/C [7] 93.8% | viability, T/C [8] 87.3% | viability, T/C [25] 107% | viability, T/C [26] 88.5% | viability, T/C [27] 72.9% | viability, T/C [28] 43.1% | viability, T/C [9] 101% | viability, T/C [10] 100% | viability, T/C [29] 94.4% | viability, T/C [30] 81.9% | viability, T/C [31] 65.3% | viability, T/C [32] 41.4% | viability, T/C [11] 97.2% | viability, T/C [12] 95.7% | viability, T/C [33] 96.7% | viability, T/C [34] 71.1% | viability, T/C [35] 64.9% | viability, T/C [36] 36.6%
6.58 µM: IC50 (second compound 3.16 µM)
7.65 µM: IC50 (second compound 1 µM)
6.91 µM: IC50 (second compound 0.316 µM)
